# pIC50: −log10 of the molar value. “And” between values parts separate entries of the source, which are not always exact repeats. Identical values can stand only once.
# Test system: 227483-062-R1-J1-PDC complex spheroids with HUVEC/MSC, viability
# Assay: Anticancer human tumor 227483-062-R1-J1-PDC patient-derived pancreatic carcinoma cell line growth inhibition [CLK]
# Details: for viability, T/C: stronger effect = lower value
# How it was run: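 Multi-cell-type spheroids combined patient-derived tumor cells with HUVEC endothelial cells and human mesenchymal stem cells. Paired agents were dosed in half-log steps down from about clinical Cmax, or from 10 microM where Cmax was unknown.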
# [1] = curve of first compound, second compound 0.0316 µM
# [2] = curve of first compound, second compound 0.1 µM
# [3] = curve of first compound, second compound 0.316 µM
# [4] = curve of first compound, second compound 1 µM
# [5] = curve of first compound, second compound 3.16 µM
# [6] = curve of first compound, second compound 10 µM
# [7] = second compound 0.0316 µM, first compound 0.0316 µM
# [8] = second compound 0.0316 µM, first compound 0.1 µM
# [9] = second compound 0.0316 µM, first compound 0.316 µM
# [10] = second compound 0.0316 µM, first compound 1 µM
# [11] = second compound 0.0316 µM, first compound 3.16 µM
# [12] = second compound 0.0316 µM, first compound 10 µM
# [13] = second compound 0.1 µM, first compound 0.0316 µM
# [14] = second compound 0.1 µM, first compound 0.1 µM
# [15] = second compound 0.1 µM, first compound 0.316 µM
# [16] = second compound 0.1 µM, first compound 1 µM
# [17] = second compound 0.1 µM, first compound 3.16 µM
# [18] = second compound 0.1 µM, first compound 10 µM
# [19] = second compound 0.316 µM, first compound 0.0316 µM
# [20] = second compound 0.316 µM, first compound 0.1 µM
# [21] = second compound 0.316 µM, first compound 0.316 µM
# [22] = second compound 0.316 µM, first compound 1 µM
# [23] = second compound 0.316 µM, first compound 3.16 µM
# [24] = second compound 0.316 µM, first compound 10 µM
# [25] = second compound 1 µM, first compound 0.0316 µM
# [26] = second compound 1 µM, first compound 0.1 µM
# [27] = second compound 1 µM, first compound 0.316 µM
# [28] = second compound 1 µM, first compound 1 µM
# [29] = second compound 1 µM, first compound 3.16 µM
# [30] = second compound 1 µM, first compound 10 µM
# [31] = second compound 3.16 µM, first compound 0.0316 µM
# [32] = second compound 3.16 µM, first compound 0.1 µM
# [33] = second compound 3.16 µM, first compound 0.316 µM
# [34] = second compound 3.16 µM, first compound 1 µM
# [35] = second compound 3.16 µM, first compound 3.16 µM
# [36] = second compound 3.16 µM, first compound 10 µM
# [37] = second compound 10 µM, first compound 0.0316 µM
# [38] = second compound 10 µM, first compound 0.1 µM
# [39] = second compound 10 µM, first compound 0.316 µM
# [40] = second compound 10 µM, first compound 1 µM
# [41] = second compound 10 µM, first compound 3.16 µM
# [42] = second compound 10 µM, first compound 10 µM
# 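Further: spheroids exposed to compounds for seven days before readout.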
# 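Wherever viability, T/C is given: percent of DMSO vehicle control luminescence as 100% viability.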
smiles,measurement,setting,value
C=CC(=O)N1CCN(c2nc(=O)n(-c3c(C)ccnc3C(C)C)c3nc(-c4c(O)cccc4F)c(F)cc23)C(C)C1 (stereo not drawn) + CNC(=O)c1ccc(Nc2nc(OC3CCCC3)c3c(-c4ccc5nc(C)oc5c4)c[nH]c3n2)c(OC)c1,pIC50,[1],< 5.00
same,pIC50,[2],< 5.00
same,pIC50,[3],< 5.00
same,pIC50,[4],< 5.00
same,pIC50,[5],5.77
same,pIC50,[6],> 7.50
same,"viability, T/C",[7],107%
same,"viability, T/C",[8],92%
same,"viability, T/C",[9],135%
same,"viability, T/C",[10],103%
same,"viability, T/C",[11],104%
same,"viability, T/C",[12],108%
same,"viability, T/C",[13],110%
same,"viability, T/C",[14],101%
same,"viability, T/C",[15],111%
same,"viability, T/C",[16],118%
same,"viability, T/C",[17],121%
same,"viability, T/C",[18],107%
same,"viability, T/C",[19],111%
same,"viability, T/C",[20],87.9%
same,"viability, T/C",[21],108%
same,"viability, T/C",[22],104%
same,"viability, T/C",[23],124%
same,"viability, T/C",[24],98.6%
same,"viability, T/C",[25],70.3%
same,"viability, T/C",[26],57.6%
same,"viability, T/C",[27],57.9%
same,"viability, T/C",[28],63.5%
same,"viability, T/C",[29],65.8%
same,"viability, T/C",[30],52.3%
same,"viability, T/C",[31],45.4%
same,"viability, T/C",[32],63.2%
same,"viability, T/C",[33],50.2%
same,"viability, T/C",[34],51.6%
same,"viability, T/C",[35],47.9%
same,"viability, T/C",[36],26.6%
same,"viability, T/C",[37],37.7%
same,"viability, T/C",[38],35.5%
same,"viability, T/C",[39],39.5%
same,"viability, T/C",[40],44.5%
same,"viability, T/C",[41],36%
same,"viability, T/C",[42],18.6%
Cn1ncnc1[C@H]1c2n[nH]c(=O)c3cc(F)cc(c23)N[C@@H]1c1ccc(F)cc1,"viability, T/C",compound 0.000316 µM,93.6% and 98%
same,"viability, T/C",compound 0.001 µM,127% and 115%
same,"viability, T/C",compound 0.00316 µM,91.9% and 102%
same,"viability, T/C",compound 0.01 µM,120% and 97%
same,"viability, T/C",compound 0.0316 µM,110% and 101%
same,"viability, T/C",compound 0.1 µM,104% and 98%
same,pIC50,curve of compound,< 7.00
CC(C)CC(NC(=O)C(Cc1ccccc1)NC(=O)c1cnccn1)B(O)O (stereo not drawn) + CN1CCN(c2cc(C(=O)Nc3cc4cc(-c5cnn(C)c5)ccc4cn3)ccn2)CC1,pIC50,[1],8.81
same,pIC50,[2],8.99
same,pIC50,[3],> 9.02
same,pIC50,[4],> 9.02
same,pIC50,[5],> 9.02
same,pIC50,[6],> 9.02
same,"viability, T/C","second compound 0.0316 µM, first compound 0.000949 µM",84.2%
same,"viability, T/C","second compound 0.0316 µM, first compound 0.003 µM",2.58%
same,"viability, T/C","second compound 0.0316 µM, first compound 0.00949 µM",0.65%
same,"viability, T/C","second compound 0.0316 µM, first compound 0.03 µM",1.12%
same,"viability, T/C","second compound 0.0316 µM, first compound 0.0949 µM",0.45%
same,"viability, T/C","second compound 0.0316 µM, first compound 0.3 µM",0.74%
same,"viability, T/C","second compound 0.1 µM, first compound 0.000949 µM",53.2%
same,"viability, T/C","second compound 0.1 µM, first compound 0.003 µM",2.83%
same,"viability, T/C","second compound 0.1 µM, first compound 0.00949 µM",1.48%
same,"viability, T/C","second compound 0.1 µM, first compound 0.03 µM",5.65%
same,"viability, T/C","second compound 0.1 µM, first compound 0.0949 µM",0.4%
same,"viability, T/C","second compound 0.1 µM, first compound 0.3 µM",0.25%
same,"viability, T/C","second compound 0.316 µM, first compound 0.000949 µM",2.47%
same,"viability, T/C","second compound 0.316 µM, first compound 0.003 µM",3.26%
same,"viability, T/C","second compound 0.316 µM, first compound 0.00949 µM",0.59%
same,"viability, T/C","second compound 0.316 µM, first compound 0.03 µM",0.21%
same,"viability, T/C","second compound 0.316 µM, first compound 0.0949 µM",0.29%
same,"viability, T/C","second compound 0.316 µM, first compound 0.3 µM",0.75%
same,"viability, T/C","second compound 1 µM, first compound 0.000949 µM",3.27%
same,"viability, T/C","second compound 1 µM, first compound 0.003 µM",1.6%
same,"viability, T/C","second compound 1 µM, first compound 0.00949 µM",0.47%
same,"viability, T/C","second compound 1 µM, first compound 0.03 µM",2.61%
same,"viability, T/C","second compound 1 µM, first compound 0.0949 µM",0.34%
same,"viability, T/C","second compound 1 µM, first compound 0.3 µM",0.4%
same,"viability, T/C","second compound 3.16 µM, first compound 0.000949 µM",5.84%
same,"viability, T/C","second compound 3.16 µM, first compound 0.003 µM",2.27%
same,"viability, T/C","second compound 3.16 µM, first compound 0.00949 µM",1.43%
same,"viability, T/C","second compound 3.16 µM, first compound 0.03 µM",0.39%
same,"viability, T/C","second compound 3.16 µM, first compound 0.0949 µM",0.63%
same,"viability, T/C","second compound 3.16 µM, first compound 0.3 µM",1.73%
same,"viability, T/C","second compound 10 µM, first compound 0.000949 µM",3.7%
same,"viability, T/C","second compound 10 µM, first compound 0.003 µM",1.18%
same,"viability, T/C","second compound 10 µM, first compound 0.00949 µM",0.37%
same,"viability, T/C","second compound 10 µM, first compound 0.03 µM",1%
same,"viability, T/C","second compound 10 µM, first compound 0.0949 µM",0.3%
same,"viability, T/C","second compound 10 µM, first compound 0.3 µM",0.21%
COC1C=CCC(C)C(C)S(=O)(=O)NC(=O)c2ccc3c(c2)N(CC2CCC21)CC1(CCCc2cc(Cl)ccc21)CO3 (stereo not drawn) + CN1CCN(c2cc(C(=O)Nc3cc4cc(-c5cnn(C)c5)ccc4cn3)ccn2)CC1,pIC50,[1],5.23
same,pIC50,[2],6.51
same,pIC50,[3],> 7.50
same,pIC50,[4],> 7.50
same,pIC50,[5],> 7.50
same,pIC50,[6],> 7.50
same,"viability, T/C",[7],94.5%
same,"viability, T/C",[8],89.8%
same,"viability, T/C",[9],109%
same,"viability, T/C",[10],87.1%
same,"viability, T/C",[11],82.4%
same,"viability, T/C",[12],23.2%
same,"viability, T/C",[13],74.2%
same,"viability, T/C",[14],77.4%
same,"viability, T/C",[15],45.6%
same,"viability, T/C",[16],25.9%
same,"viability, T/C",[17],14.9%
same,"viability, T/C",[18],9.47%
same,"viability, T/C",[19],5.64%
same,"viability, T/C",[20],6.22%
same,"viability, T/C",[21],4.57%
same,"viability, T/C",[22],5.41%
same,"viability, T/C",[23],4.64%
same,"viability, T/C",[24],2.38%
same,"viability, T/C",[25],1.87%
same,"viability, T/C",[26],1.41%
same,"viability, T/C",[27],1.74%
same,"viability, T/C",[28],2.02%
same,"viability, T/C",[29],3.06%
same,"viability, T/C",[30],3.77%
same,"viability, T/C",[31],4.46%
same,"viability, T/C",[32],3.64%
same,"viability, T/C",[33],3.99%
same,"viability, T/C",[34],2.73%
same,"viability, T/C",[35],2.81%
same,"viability, T/C",[36],1.89%
same,"viability, T/C",[37],4.15%
same,"viability, T/C",[38],2.18%
same,"viability, T/C",[39],2.3%
same,"viability, T/C",[40],2.91%
same,"viability, T/C",[41],2.23%
same,"viability, T/C",[42],1.54%
